Results as given in patent publication US20120028917A1, “Use Of N-(4-((3-(2-Amino-4-Pyrimidinyl)-2-Pyridinyl)Oxy)Phenyl)-4-(4-Methyl-2-Thienyl)-1-Phthalazinamine In The Treatment Of Antimitotic Agent Resistant Cancer” (Amgen Inc., priority 2009, published 2012).

Assays:
HCT116 AZD1152-resistant = experiment: Colony formation assay (FIG. 6-B); assay type: cell-based, human; conditions: HCT116 AZD1152-resistant; 48 hours treatment, re-plated drug-free
Method: Tumor cell lines were obtained from the American Type Culture Collection (ATCC) unless otherwise specified. The MDA-MB-231-PTX and NCI-H460-PTX cell lines were established by growing the cells in the presence of increasing concentrations of paclitaxel over a period of 6 months. The HCT116 AZD1152-resistant cell line was established by growing the cells in the presence of AZD1152 at 80 nmol/L. Tumor cells were treated with AMG 900, paclitaxel or AZD1152 (0.5, 5, 50 nmol/L) for 48 hours, washed twice with complete media, and cells were re-plated at a density of 5000 cells per well in drug-free complete media. Cells were grown until the DMSO control wells were confluent. Cells were stained with crystal violet dye (Sigma), washed with distilled water, and imaged using a digital scanner (Hewlett-Packard). Colony formation assay was performed with HCT116 cell lines (parental and AZD1152-resistant). Cells were treated with DMSO, AMG 900, AZD1152, or paclitaxel at the indicated concentrations for 48 hours and re-plated in complete media lacking the inhibitor. After the DMSO-treated cells reached confluence, the cells were stained with crystal violet and imaged (duplicate wells).

MES-SA Dx5 xenograft = experiment: Xenograft tumor growth inhibition (Example 3); assay type: in vivo, athymic nude mice
Method: To investigate whether AMG 900-induced suppression of aurora kinase activity inhibits cell proliferation, the antiproliferative efficacy of AMG 900 was evaluated in-vivo in multiple human cancer xenograft models, including breast, colon, leukemia, lung, pancreatic, and uterine cancer models, grown in athymic nude mice. Mice were administered AMG 900 orally at 3.75, 7.5, or 15 mg/kg BID for 2 consecutive days per week or 3 mg/kg BID everyday for the duration of the study beginning when tumors were established. The reagents, solutions, equipment, formulation of AMG 900, tumor volume measurements and calculations were generally as described in Example 4 below.
The effect of AMG 900 was tested on the multidrug resistant cell line MES-SA Dx5 grown in vivo as a tumor xenograft. Mice were administered AMG 900 orally at 15 mg/kg BID for 2 consecutive days per week or 3.0 mg/kg BID everyday for the duration of the study. Dosing was initiated when tumors were established (10 days after tumor implantation).
MES-SA Dx5, multi-drug resistant, cells (2×10^6) were injected subcutaneously in the right flank of female athymic nude mice. Tumors were measured twice per week. Treatment began on day 10 when the tumors were ˜100 mm^3. […] P-values correspond to statistical difference between groups treated with vehicle and AMG 900 determined by RMANOVA followed by Dunnett's post-hoc test. […]

PC3 = experiment: Antiproliferative assay (ArrayScan VTi); assay type: cell-based; conditions: Homo sapiens, PC-3; PC3 (Prostate); 24 h treatment, then 48 h without compound
Method: (§1) Tumor cells were seeded in a Packard View 96-well plate in 100 μL of appropriate complete media at a density of 3000 or 5000 cells/well depending on the cell line growth kinetics (broadly defined as slow vs. fast). All dilutions were performed using Biomek FX workstation. The next day cells were treated with AMG 900 (11-point dose range 0.156 to 0.0003 μM) with a final DMSO concentration of 0.12% in media. After 24 hours, the media containing compound was removed and the cells were washed with complete media. The cells were then incubated in 100 μL of fresh complete media (without compound) for 48 hours. After 48 hours, the cells were fixed by adding 100 μL of fixation buffer to 100 μL of complete media. The cells were incubated at room temperature for 10 minutes. The fixation buffer was aspirated and the cells were then permeabilized in 100 μL wash buffer for 30 minutes at room temperature followed by the addition of 100 μL of DNA stain buffer and incubated at room temperature for 30 minutes in the dark. Next, the cells were washed with 100 μL of wash buffer and stored in 100 μL 1×PBS at 4 degrees Celsius until analysis. Cellular data was attained by scanning the 96-well plates on an ArrayScan VTi imaging system (Cellomics). Quantification of individual cell nuclear area and intensity was performed based on Hoechst 33342 DNA dye fluorescence. A threshold on the nuclear area based on the DMSO-treated control well was set to quantify the number of normal size nuclei from nuclear debris and polyploidy cells. This threshold value was applied to enumerate the number of normal nuclei in six image fields/well using a magnification of 10×. The dose-concentration curves and EC50 values were calculated using a 4-parameter equation.

HT29 = experiment: Antiproliferative assay (ArrayScan VTi); assay type: cell-based; conditions: Homo sapiens, HT-29; HT29 (Colon); 24 h treatment, then 48 h without compound
Method: as §1

HOP-62 = experiment: Antiproliferative assay (ArrayScan VTi); assay type: cell-based; conditions: Homo sapiens; HOP-62 (Lung); 24 h treatment, then 48 h without compound
Method: as §1

MES-SA Dx5 [1] = experiment: Antiproliferative assay (ArrayScan VTi); assay type: cell-based; conditions: Homo sapiens; MES-SA Dx5* (Uterine), paclitaxel-resistant; 24 h treatment, then 48 h without compound
Method: as §1

MES-SA Dx5 [2] = experiment: p-Histone H3 assay (ArrayScan VTi); assay type: cell-based; conditions: Homo sapiens, 24 h; MES-SA Dx5, Uterine, Doxorubicin-selected, P-gp overexpressing
Method: (§2) MES-SA Dx5 and MES-SA cells were plated at a density of 10,000 cells/well onto 96-well plate in complete media and cultured for 24 hours. […] Cells were washed and fixed by adding 100 μL of 2× formaldehyde fixation buffer for 10 minutes and room temperature. […] Cells were immunostained with p-histone H3 antibody (5 μg/mL) and incubated at room temperature for 2 hours. Cells were washed in 100 μL of wash buffer. Next, cells were incubated with a goat anti-rabbit alexa-488 conjugated antibody (1.5 μg/mL) in wash buffer supplemented with Hoechest DNA dye (1 μg/mL) and incubated at room temperature in the dark for 30 minutes. Cells were washed twice with 100 μL of wash buffer. The 96-well plates were analyzed on an ArrayScan VTi (Cellomics) using a bioapplication algorithm (TargetActivation.V2). […] Cells were then fixed and stained with p-histone H3 antibody and counterstained with a DNA dye (Hoechest). Imaging-based analysis (ArrayScan VTi) was performed to measure the percentage of p-histone H3 positive cells. The dose-response curves represent either AMG 900 or taxol concentrations plotted against p-Histone H3 positive cells as a percentage of DMSO-treated control (POC). The EC50 values were calculated by 4-parameter fit model.

MES-SA = experiment: p-Histone H3 assay (ArrayScan VTi); assay type: cell-based; conditions: Homo sapiens, 24 h, Uterine, Parent line
Method: as §2

EC50 (PC3): 2 nM
EC50 (HT29): 5 nM
EC50 (MES-SA Dx5 [2]): < 2 nM
EC50 (MES-SA): < 2 nM
Compound: Cc1csc(-c2nnc(Nc3ccc(Oc4ncccc4-c4ccnc(N)n4)cc3)c3ccccc23)c1 [AMG 900, N-(4-((3-(2-amino-4-pyrimidinyl)-2-pyridinyl)oxy)phenyl)-4-(4-methyl-2-thienyl)-1-phthalazinamine]
concentrations inhibiting colony formation (HCT116 AZD1152-resistant): ≥ 5 nmol/L
% TGI (tumor growth inhibition) (MES-SA Dx5 xenograft; MES-SA Dx5, Uterine, oral BID, best of intermittent or continuous dose schedule): 73%
tumor growth vs vehicle control (MES-SA Dx5 xenograft; MES-SA Dx5, 15 mg/kg BID 2 consecutive days per week and 3.0 mg/kg BID everyday, p<0.0001): statistically significant tumor growth inhibition
EC50 (HOP-62): 2 nM
EC50 (MES-SA Dx5 [1]): 1 nM
